Measured values: ChEMBL document CHEMBL2157960, “Novel cyanocombretastatins as potent tubulin polymerisation inhibitors” (Bioorg Med Chem Lett, 2012)

Columns and labels:
[1] = system: MCF7; assay: Cytotoxicity against human MCF7 cells; format: functional, cell-based
[2] = system: K562; assay: Antiproliferative activity against human K562 cells by MTT assay; format: functional, cell-based
[3] = system: MDA-MB-468; assay: Antiproliferative activity against human MDA-MB-468 cells expressing NQO1 by MTT assay; format: functional, cell-based
[4] = molecular target: Tubulin (Sus scrofa, UniProt P02554+P02550); assay: Inhibition of pig tubulin polymerization by spectrophotometry; format: protein assay

| Compound | IC50 [1] [µM] | IC50 [2] [nM] | IC50 [3] [nM] | IC50 [4] [µM] |
| --- | --- | --- | --- | --- |
| COc1ccc(/C=C/c2cc(OC)c(OC)c(OC)c2)cc1B(O)O | 470 | – | – | – |
| COc1ccc(/C=C/c2cc(OC)c(OC)c(OC)c2)cc1Br | – | 7830 | – | – |
| COc1ccc(/C=C(\C#N)c2cc(OC)c(OC)c(OC)c2)cc1Br | – | 49.5 | 70.6 | 35.6 |
| COc1ccc(/C=C\c2cc(OC)c(OC)c(OC)c2)cc1O [COMBRETASTATIN A4] | – | 2.3 | 3.1 | – |
| COc1ccc(/C=C/c2cc(OC)c(OC)c(OC)c2)cc1F | – | > 2500 | – | – |
| COc1ccc(/C=C(\C#N)c2cc(OC)c(OC)c(OC)c2)cc1F | – | 18.7 | 20.3 | 18.5 |
| COc1ccc(/C=C\c2cc(OC)c(OC)c(OC)c2)cc1F | – | 7 | – | – |
| COc1ccc(/C=C(\C#N)c2cc(OC)c(OC)c(OC)c2)cc1B(O)O | – | 20.4 | 35.7 | 17.4 |
| COc1ccc(/C=C(\C#N)c2cc(OC)c(OC)c(OC)c2)cc1I | – | 42.6 | 85.3 | 43.8 |
| C#Cc1cc(/C=C(\C#N)c2cc(OC)c(OC)c(OC)c2)ccc1OC | – | 30.2 | 46.5 | 25.3 |
| COc1ccc(/C=C(/C#N)c2cc(OC)c(OC)c(OC)c2)cc1F | – | 6.7 | 4.1 | 4.2 |
